From patent US10065990B2, “Cyclic peptide compound, and preparation method, pharmaceutical composition and use thereof” (HANGZHOU GUANYU BIO-MEDICAL CO., LTD, priority 2013, dated 2018)
Where two headings read alike, the source gives them in different places.

Experiments:
HDAC7 = biological target: T1, HDAC7 (Homo sapiens, UniProt Q8WUI4); experiment: HDAC biochemical activity measurement (fluorescent substrate deacetylation);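 further: fluorogenic deacetylation assay using acetyl-lysine substrate at 20 µM, enzyme and compound incubated 30 min at 37 °C, then developer added, fluorescence read at 360/460 nm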; conditions: HDAC7; 37° C. 30 minutes
T1 sequence (Q8WUI4 1-952): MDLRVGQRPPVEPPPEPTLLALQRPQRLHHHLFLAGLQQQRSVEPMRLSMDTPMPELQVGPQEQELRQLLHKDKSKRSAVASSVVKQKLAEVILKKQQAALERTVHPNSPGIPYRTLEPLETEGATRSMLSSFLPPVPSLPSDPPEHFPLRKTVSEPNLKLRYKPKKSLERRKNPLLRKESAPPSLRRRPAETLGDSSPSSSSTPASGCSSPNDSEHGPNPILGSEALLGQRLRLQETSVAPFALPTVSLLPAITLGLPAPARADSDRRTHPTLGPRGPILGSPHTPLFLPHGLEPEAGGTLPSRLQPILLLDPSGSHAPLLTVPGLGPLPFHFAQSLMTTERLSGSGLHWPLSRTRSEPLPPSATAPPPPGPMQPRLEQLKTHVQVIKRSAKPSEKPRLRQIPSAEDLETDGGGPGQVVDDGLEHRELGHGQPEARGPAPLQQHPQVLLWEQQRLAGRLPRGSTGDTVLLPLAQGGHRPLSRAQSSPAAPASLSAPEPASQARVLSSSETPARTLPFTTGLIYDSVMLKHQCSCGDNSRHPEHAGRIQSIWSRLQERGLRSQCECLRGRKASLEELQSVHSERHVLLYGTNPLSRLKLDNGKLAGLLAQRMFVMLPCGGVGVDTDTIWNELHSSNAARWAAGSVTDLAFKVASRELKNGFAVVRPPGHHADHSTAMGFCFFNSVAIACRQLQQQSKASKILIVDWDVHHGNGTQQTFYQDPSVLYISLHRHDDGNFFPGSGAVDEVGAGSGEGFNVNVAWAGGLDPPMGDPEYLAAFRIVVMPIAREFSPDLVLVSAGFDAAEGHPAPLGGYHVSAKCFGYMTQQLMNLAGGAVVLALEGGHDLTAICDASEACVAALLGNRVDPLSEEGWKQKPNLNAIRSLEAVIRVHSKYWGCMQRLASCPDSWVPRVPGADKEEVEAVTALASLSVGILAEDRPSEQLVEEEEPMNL

[1] = tested on: A549 (human lung cancer cells); experiment: MTT cancer cell growth inhibition; type: cell-based; conditions: Homo sapiens, A549, 72 h, MTT, 72 hours incubation, read-out: GI50 A54
Method in brief: (§1)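 72 h exposure, final drug 10^−5–10^−10 M, triplicate wells; 1500 cells/well plated the day before; medium DMEM or 1640 + 10% FBS; 37° C./5% CO2. MTT (5 mg/ml stock) 4 h, DMSO solubilisation, A570 → % viability → GI50.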

[2] = tested on: BGC-823 (human gastric cancer cells); experiment: MTT cancer cell growth inhibition; type: cell-based; conditions: Homo sapiens, BGC-823, 72 h, MTT, 72 hours incubation, read-out: GI50 BG
Method in brief: as §1

[3] = tested on: Bel-7402 (human hepatoma cells); experiment: MTT cancer cell growth inhibition; type: cell-based; conditions: Homo sapiens, Bel-7402, 72 h, MTT, 72 hours incubation, Bel-7402 cells; read-out: GI50 Bel-7402
Method in brief: as §1

[4] = tested on: DU145 (human prostate cancer cells); experiment: MTT cancer cell growth inhibition; type: cell-based; conditions: Homo sapiens, DU-145, 72 h, MTT, 72 hours incubation, read-out: GI50 Du1
Method in brief: as §1

[5] = tested on: H1975 (non-small cell lung adenocarcinoma); experiment: MTT cancer cell growth inhibition; type: cell-based; conditions: Homo sapiens, NCI-H1975, 72 h, MTT, 72 hours incubation, H1975 cells; read-out: GI50 H1975
Method in brief: as §1

[6] = tested on: HCC827 (human non-small cell lung cancer cells); experiment: MTT cancer cell growth inhibition; type: cell-based; conditions: Homo sapiens, HCC827, 72 h, MTT, 72 hours incubation, HCC827 cells; read-out: GI50 HCC827
Method in brief: as §1

[7] = tested on: HT1080 (human fibrosarcoma cells); experiment: MTT cancer cell growth inhibition; type: cell-based; conditions: Homo sapiens, HT-1080, 72 h, MTT, 72 hours incubation, read-out: GI50 HT1
Method in brief: as §1

[8] = tested on: Hela (human cervical cancer cells); experiment: MTT cancer cell growth inhibition; type: cell-based; conditions: Homo sapiens, HeLa, 72 h, MTT, 72 hours incubation, read-out: GI50 Hela
Method in brief: as §1

[9] = tested on: Huh-7 (human hepatoma cells); experiment: MTT cancer cell growth inhibition; type: cell-based; conditions: Homo sapiens, Huh-7, 72 h, MTT, 72 hours incubation, Huh-7 cells; read-out: GI50 Huh-7
Method in brief: as §1

[10] = tested on: K562 (human leukemia cells); experiment: MTT cancer cell growth inhibition; type: cell-based; conditions: Homo sapiens, K562, 72 h, MTT, 72 hours incubation, K562 cells; read-out: GI50 K562
Method in brief: as §1

[11] = tested on: KBM-5 (human chronic myelogenous leukemia); experiment: MTT cancer cell growth inhibition; type: cell-based; conditions: Homo sapiens, KBM5, 72 h, MTT, 72 hours incubation, KBM-5 cells; read-out: GI50 KBM-5
Method in brief: as §1

[12] = tested on: KBM5-T315I (human chronic myelogenous leukemia); experiment: MTT cancer cell growth inhibition; type: cell-based; conditions: Homo sapiens, 72 h, MTT, 72 hours incubation, KBM5-T315I cells; read-out: GI50 KBM5-T315I
Method in brief: as §1

[13] = tested on: MCF-7 (human breast cancer cells); experiment: MTT cancer cell growth inhibition; type: cell-based; conditions: Homo sapiens, MCF7, 72 h, 72 hours incubation, read-out: GI50 MCF
Method in brief: as §1

[14] = tested on: MDA-MB-231 (breast cancer cells); experiment: MTT cancer cell growth inhibition; type: cell-based; conditions: Homo sapiens, MDA-MB-231, 72 h, read-out: GI50 MDA-MB-231, MTT, 72 hours incubation, MDA-MB-231 cells
Method in brief: as §1

[15] = tested on: MOLT-4 (human acute lymphoblastic leukemia cells); experiment: MTT cancer cell growth inhibition; type: cell-based; conditions: Homo sapiens, MOLT-4, 72 h, MTT, 72 hours incubation, read-out: GI50 Mol
Method in brief: as §1

[16] = tested on: N-87 (human gastric cancer cells); experiment: MTT cancer cell growth inhibition; type: cell-based; conditions: Homo sapiens, 72 h, MTT, 72 hours incubation, N-87 cells; read-out: GI50 N-87
Method in brief: as §1

[17] = tested on: PANC-1 (Pac-1, human pancreatic cancer cells); experiment: MTT cancer cell growth inhibition; type: cell-based; conditions: Homo sapiens, PANC-1, 72 h, MTT, 72 hours incubation, read-out: GI50 PAN
Method in brief: as §1

[18] = tested on: SGC-7901 (human gastric cancer cells); experiment: MTT cancer cell growth inhibition; type: cell-based; conditions: Homo sapiens, SGC-7901, 72 h, MTT, 72 hours incubation, SGC-7901 cells; read-out: GI50 SGC-7901
Method in brief: as §1

[19] = tested on: U937 (human leukemia cells); experiment: MTT cancer cell growth inhibition; type: cell-based; conditions: Homo sapiens, U-937, 72 h, MTT, 72 hours incubation, read-out: GI50 U93
Method in brief: as §1

[20] = tested on: lncap (prostate cancer cells); experiment: MTT cancer cell growth inhibition; type: cell-based; conditions: Homo sapiens, LNCaP, 72 h, MTT, 72 hours incubation, read-out: GI50 lnca
Method in brief: as §1

| IC50 HDAC7 (HDAC7) | GI50 [3] [nM] | GI50 [5] [nM] | GI50 [6] [nM] | GI50 [9] [nM] | GI50 [10] [nM] | GI50 [11] [nM] | GI50 [12] [nM] | GI50 [14] [nM] | GI50 [16] [nM] | GI50 [18] [nM] | GI50 [1] [nM] | GI50 [2] [nM] | GI50 [4] [nM] | GI50 [7] [nM] | GI50 [8] [nM] | GI50 [13] [nM] | GI50 [15] [nM] | GI50 [17] [nM] | GI50 [19] [nM] | Structure (SMILES) | other results |
| --- | --- | --- | --- | --- | --- | --- | --- | --- | --- | --- | --- | --- | --- | --- | --- | --- | --- | --- | --- | --- | --- |
| no activity | 48 | 97 | 13 | 17 | 49 | 29 | 57 | 56 | 62 | 35 | – | – | – | – | – | – | – | – | – | C/C=C1\NC(=O)c2nc(ccc2SC)CNC(=O)C[C@@H](/C=C/CCSC(=O)CCCCCCC)OC(=O)[C@H](C)NC1=O [Compound 180] | GI50 ([1]; A549 cells): 30 nM; GI50 ([2]; BGC-823 cells): 50 nM; GI50 ([4]; DU145 cells): 60 nM; GI50 ([7]; HT1080 cells): 50 nM; GI50 ([8]; Hela cells): 100 nM; GI50 ([13]; MCF-7 cells): 20 nM; GI50 ([15]; MOLT-4 cells): 50 nM; GI50 ([17]; PANC-1 cells): 30 nM; GI50 ([19]; U937 cells): 70 nM; GI50 ([20]; lncap cells): 20 nM |
| no activity | 94 | 34 | 94 | 49 | 53 | 83 | 24 | 49 | 34 | 36 | 30 | 30 | 50 | 90 | 80 | 20 | 40 | 90 | 30 | C=C1NC(=O)c2nc(ccc2F)CNC(=O)C[C@@H](/C=C/CCSC(C)=O)OC(=O)[C@H](C)NC1=O [Compound 90] | GI50 [20]: 40 nM |
| no activity | 36 | 67 | 37 | 83 | 28 | 63 | 19 | 56 | 28 | 73 | – | – | – | – | – | – | – | – | – | C=C1NC(=O)c2nc(ccc2SC)CNC(=O)C[C@@H](/C=C/CCSC(C)=O)OC(=O)[C@H](C(C)C)NC1=O [Compound 204] | GI50 ([1]; A549 cells): 30 nM; GI50 ([2]; BGC-823 cells): 20 nM; GI50 ([4]; DU145 cells): 50 nM; GI50 ([7]; HT1080 cells): 30 nM; GI50 ([8]; Hela cells): 60 nM; GI50 ([13]; MCF-7 cells): 30 nM; GI50 ([15]; MOLT-4 cells): 40 nM; GI50 ([17]; PANC-1 cells): 20 nM; GI50 ([19]; U937 cells): 20 nM; GI50 ([20]; lncap cells): 50 nM |
| no activity | 41 | 23 | 23 | 38 | 75 | 35 | 56 | 11 | 32 | 33 | – | – | – | – | – | – | – | – | – | C/C=C1\NC(=O)c2ccc(SC)c(n2)CNC(=O)C[C@@H](/C=C/CCSC(=O)CCCCC)OC(=O)[C@H](C(C)C)NC1=O [Compound 155] | GI50 ([1]; A549 cells): 40 nM; GI50 ([2]; BGC-823 cells): 40 nM; GI50 ([4]; DU145 cells): 50 nM; GI50 ([7]; HT1080 cells): 90 nM; GI50 ([8]; Hela cells): 40 nM; GI50 ([13]; MCF-7 cells): 50 nM; GI50 ([15]; MOLT-4 cells): 90 nM; GI50 ([17]; PANC-1 cells): 40 nM; GI50 ([19]; U937 cells): 40 nM; GI50 ([20]; lncap cells): 40 nM |
| no activity | 93 | 53 | 93 | 37 | 43 | 81 | 69 | 37 | 42 | 53 | 50 | 40 | 40 | 90 | 80 | 60 | 30 | 90 | 50 | C/C=C1\NC(=O)c2ccc(F)c(n2)CNC(=O)C[C@@H](/C=C/CCSC(=O)CCCCCCC)OC(=O)[C@H](CC)NC1=O [Example 56] | GI50 [20]: 30 nM |
| no activity | 23 | 16 | 73 | 35 | 55 | 21 | 31 | 58 | 73 | 41 | 60 | 80 | 60 | 90 | 70 | 60 | 90 | 80 | 60 | C/C=C1\NC(=O)c2nc(ccc2F)CNC(=O)C[C@@H](/C=C/CCS)OC(=O)[C@H](C)NC1=O [Compound 112] | GI50 [20]: 70 nM |
| no activity | 49 | 61 | 49 | 39 | 26 | 53 | 25 | 39 | 27 | 15 | 10 | 20 | 20 | 40 | 50 | 20 | 30 | 40 | 60 | C=C1NC(=O)c2cc(F)cc(n2)CNC(=O)C[C@@H](/C=C/CCSC(C)=O)OC(=O)[C@H](C(C)C)NC1=O [Compound 85] | GI50 [20]: 30 nM |
